Among the test systems are 786-0; CAKI-1; HCC 2998; HCT-116; M14; MDA-N; MOLT-4; NCI-H226; NCI-H460; NCI-H522; PC-3; RPMI-8226; SF-295; SK-MEL-28; SK-MEL-2; SK-OV-3; SNB-75; UACC-62; CCRF-CEM.
Common to all, as to assay: NCI tumour cell line growth inhibition, 48 h

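Results reflect a 48-hour exposure of cells in 96-well plates to compound at five concentrations. Abbreviation: GI50, concentration required for 50% inhibition of growth.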 The source made the active and inactive calls. No stated cut-off is given here; in the data, active = GI50 up to about 1.1 µM and inactive = higher. A value given as a limit tells only on which side of the number the result lay.

As for `COc1cc(/C=C/C(C)=O)ccc1OP(=O)(O)O`, the GI50 in the assay with 786-0, in the assay on CAKI-1, in the assay on HCC 2998, with HCT-116, in the assay with M14 and in the assay with MDA-N was > 100 µM (inactive) each time. For the same compound, the GI50 in the assay on MOLT-4, in the assay with NCI-H226, with NCI-H460, with NCI-H522, in the assay on PC-3 and in the assay on RPMI-8226 was > 100 µM (inactive) each time. The GI50 in the assay on SF-295, in the assay with SK-MEL-28, with SK-MEL-2, in the assay on SK-OV-3, with SNB-75 and with UACC-62 was > 100 µM (inactive) each time.

As for `Nc1nc(S)c2c(N)n[nH]c2c1C(=O)Nc1ccc(Cl)cc1`, the GI50 in the assay with 786-0 is 45.9 µM (inactive); with CAKI-1, 60.3 µM (inactive); with HCC 2998, > 100 µM (inactive); with HCT-116, > 100 µM (inactive); in the assay on M14, 45.4 µM (inactive); in the assay on MDA-N, 89.7 µM (inactive). Moreover, the GI50 in the assay on MOLT-4 was > 100 µM (inactive); with NCI-H226, > 100 µM (inactive); in the assay with NCI-H460, 54.1 µM (inactive); in the assay with NCI-H522, 96.4 µM (inactive); with PC-3, > 100 µM (inactive); in the assay on RPMI-8226, > 100 µM (inactive). Besides, the GI50 was > 100 µM (inactive) in the assay on SK-MEL-28; > 100 µM (inactive) in the assay with SK-MEL-2; > 100 µM (inactive) in the assay with SK-OV-3; > 100 µM (inactive) in the assay with SNB-75; 18.4 µM (inactive) in the assay on UACC-62.

For `O=C1CSC(=S)N1c1ccc(F)cc1F`, the GI50 is > 100 µM (inactive) in the assay with 786-0; 45.3 µM (inactive) with CAKI-1; 25.6 µM (inactive) in the assay with CCRF-CEM; 34.8 µM (inactive) in the assay on HCC 2998; > 100 µM (inactive) in the assay on HCT-116; 40.9 µM (inactive) in the assay with M14. Further, the GI50 was 36.3 µM (inactive) with MDA-N; > 100 µM (inactive) in the assay on NCI-H226; 83.2 µM (inactive) in the assay with NCI-H460; 18 µM (inactive) in the assay with NCI-H522; > 100 µM (inactive) in the assay with PC-3; 24.4 µM (inactive) with RPMI-8226. Further, the GI50 in the assay on SF-295 is 44.8 µM (inactive); in the assay with SK-MEL-28, 78.7 µM (inactive); in the assay on SK-MEL-2 it was 61.2 µM (inactive); with SK-OV-3 it was > 100 µM (inactive); in the assay with SNB-75, 42.3 µM (inactive); in the assay with UACC-62, 70.8 µM (inactive).

For `CC(C)(C)OC(=O)N(O)CCCn1cnc2c(NC3CC3)ncnc21`, the GI50 in the assay with 786-0, with CAKI-1, in the assay on CCRF-CEM, in the assay on HCC 2998, in the assay with HCT-116 and in the assay on M14 was > 100 µM (inactive) each time. Besides, the GI50 in the assay with MDA-N, with MOLT-4, in the assay with NCI-H226, with NCI-H460, in the assay on NCI-H522 and with PC-3 was > 100 µM (inactive) throughout. The GI50 with RPMI-8226 is > 100 µM (inactive); in the assay on SF-295, > 100 µM (inactive); in the assay on SK-MEL-28, > 100 µM (inactive); in the assay with SK-MEL-2 it was > 100 µM (inactive); in the assay on SK-OV-3, > 100 µM (inactive); in the assay on SNB-75, 35.1 µM (inactive). Further, in the assay with UACC-62, the GI50 was > 100 µM (inactive).

`CC(C)(NC1=NCCO1)c1ccccc1`: the GI50 with 786-0, with CAKI-1, in the assay on HCC 2998, with HCT-116, in the assay on M14 and in the assay with MDA-N was > 100 µM (inactive) each time. Further, the GI50 in the assay on MOLT-4, in the assay with NCI-H226, in the assay with NCI-H460, with NCI-H522, in the assay on PC-3 and in the assay on RPMI-8226 was > 100 µM (inactive) each time. Further, the GI50 with SF-295, with SK-MEL-28, in the assay on SK-MEL-2, in the assay with SK-OV-3, in the assay with SNB-75 and in the assay with UACC-62 was > 100 µM (inactive) in each case.

On to `Cc1nc(NC(C)(CO)CO)nc(N/N=C/c2ccc(Cl)cc2)c1C(=O)Nc1ccc(Cl)cc1`, for which the GI50 was > 100 µM (inactive) with 786-0; > 100 µM (inactive) in the assay on CAKI-1; 42.9 µM (inactive) in the assay on CCRF-CEM; > 100 µM (inactive) in the assay on HCC 2998; 80.2 µM (inactive) in the assay with HCT-116; > 100 µM (inactive) in the assay with M14. Moreover, the GI50 in the assay on MDA-N was > 100 µM (inactive); in the assay on MOLT-4 it was 65.5 µM (inactive); in the assay with NCI-H226 it was > 100 µM (inactive); in the assay on NCI-H460 it was > 100 µM (inactive); in the assay on NCI-H522 it was 48.1 µM (inactive); with PC-3, > 100 µM (inactive). For the same compound, the GI50 in the assay with RPMI-8226, in the assay with SF-295, with SK-MEL-28, with SK-MEL-2, with SK-OV-3 and with SNB-75 was > 100 µM (inactive) in each case. The GI50 with UACC-62 is 59.8 µM (inactive).

Turning to `Cc1cc2nn(C3CCCO3)nc2cc1C` (configuration not stated), the GI50 with 786-0, in the assay with CAKI-1, in the assay on CCRF-CEM, in the assay with HCC 2998, in the assay with HCT-116 and with M14 was > 100 µM (inactive) each time. The GI50 with MDA-N, with MOLT-4, in the assay on NCI-H226, with NCI-H460, in the assay with NCI-H522 and in the assay with PC-3 was > 100 µM (inactive) in each case. The GI50 was > 100 µM (inactive) in the assay on SF-295; > 100 µM (inactive) in the assay on SK-MEL-2; > 100 µM (inactive) in the assay on SK-OV-3; 69.3 µM (inactive) in the assay with SNB-75; > 100 µM (inactive) with UACC-62.

Regarding `CC1=NN(c2cccc(Cl)c2)C2(C1=Cc1cccs1)C(Cl)C(=O)N2c1nc2ccccc2s1` (configuration not stated), the GI50 in the assay on 786-0 was 13.8 µM (inactive); in the assay with CAKI-1, 23.5 µM (inactive); in the assay with HCC 2998 it was 17 µM (inactive); with HCT-116, 18.4 µM (inactive); in the assay on M14, 34.8 µM (inactive); with MDA-N, 22.1 µM (inactive). Moreover, the GI50 with MOLT-4 was 22.3 µM (inactive); in the assay with NCI-H226 it was 24.3 µM (inactive); with NCI-H460, 20 µM (inactive); in the assay on NCI-H522, 18.5 µM (inactive); in the assay on PC-3, 20.9 µM (inactive); with RPMI-8226, 17.9 µM (inactive). Moreover, the GI50 in the assay with SF-295 was 19.6 µM (inactive); in the assay on SK-MEL-28, 39.4 µM (inactive); in the assay with SK-MEL-2, 17.9 µM (inactive); in the assay on SNB-75, 34.8 µM (inactive).

For the compound `Cc1cc(=O)oc2cc(SC(=O)N(C)C)ccc12`, the GI50 in the assay with 786-0, with CAKI-1, in the assay on HCC 2998, in the assay on HCT-116, in the assay on M14 and with MDA-N was > 100 µM (inactive) each time. Also, the GI50 with MOLT-4, with NCI-H226, in the assay with NCI-H460, in the assay on NCI-H522, in the assay with PC-3 and in the assay with RPMI-8226 was > 100 µM (inactive) each time. The GI50 in the assay with SF-295 was > 100 µM (inactive); in the assay on SK-MEL-28, > 100 µM (inactive); in the assay on SK-MEL-2, > 100 µM (inactive); with SK-OV-3, > 100 µM (inactive); in the assay with SNB-75 it was > 100 µM (inactive); in the assay on UACC-62, 57.1 µM (inactive).

As to `CC1(C(=O)O)C[C@](C)(C(=O)OCc2ccccc2)C[C@](C)(C(=O)OCc2ccccc2)C1` (some centres not stated), the GI50 with 786-0 is 32 µM (inactive); in the assay on CAKI-1, 25.4 µM (inactive); in the assay on CCRF-CEM, 34.3 µM (inactive); with HCC 2998 it was 27 µM (inactive); with HCT-116, 24.1 µM (inactive); in the assay with M14, 45.6 µM (inactive). Besides, the GI50 in the assay with MDA-N was 36 µM (inactive); in the assay on MOLT-4, 25.4 µM (inactive); in the assay on NCI-H226, 27.3 µM (inactive); in the assay on NCI-H460, 23.9 µM (inactive); in the assay on NCI-H522, 21.6 µM (inactive); in the assay on PC-3 it was 26.2 µM (inactive). Besides, the GI50 with RPMI-8226 is 26.2 µM (inactive); in the assay on SF-295 it was 21.2 µM (inactive); in the assay on SK-MEL-28 it was 50.2 µM (inactive); with SK-MEL-2, 17.5 µM (inactive); in the assay with SK-OV-3, 32.6 µM (inactive); in the assay with SNB-75 it was 13.7 µM (inactive). For the same compound, the GI50 with UACC-62 is 19 µM (inactive).

Consider `COc1ccc(/N=c2/[nH]c(N)c(C(=O)c3ccc(OC)cc3)s2)cc1`, for which the GI50 with 786-0 is 0.441 µM (active); with CAKI-1, 0.313 µM (active); with CCRF-CEM it was 0.183 µM (active); in the assay with HCC 2998, 0.755 µM (active); in the assay on HCT-116, 0.365 µM (active); with MDA-N, 0.0301 µM (active). Moreover, the GI50 with MOLT-4 was 0.0851 µM (active); with NCI-H226 it was 17.7 µM (inactive); in the assay with NCI-H460 it was 0.347 µM (active); in the assay on NCI-H522, 0.127 µM (active); in the assay on PC-3, 0.284 µM (active); in the assay on RPMI-8226, 0.164 µM (active). Also, the GI50 with SF-295 is 0.159 µM (active); with SK-MEL-28 it was 4.55 µM (inactive); in the assay on SK-MEL-2, 0.288 µM (active); in the assay with SK-OV-3, 0.376 µM (active); with SNB-75, 0.31 µM (active); in the assay on UACC-62, 0.481 µM (active).

For the origin of these results see ChEMBL document CHEMBL1201862, “PubChem BioAssay data set” (2004).
